Assay results as given in patent US9295671B2, “Benzenesulfonamide derivatives of quinoxaline, pharmaceutical compositions thereof, and their use in methods for treating cancer” (NEUPHARMA, INC., priority 2011, dated 2016).
pIC50: −log10 of the molar value.

Columns and labels:
[1] = target: T1, BRAF (Homo sapiens, UniProt P15056); test: Z′-LYTE kinase assay, BRAF (Invitrogen); type: biochemical; details: Z′-LYTE method
T1 construct: purchased Invitrogen
Procedure: (§1) Inhibitory activities of compounds against BRAF or BRAF V600E were measured by Invitrogen using Z′-LYTE® Method as briefly described in the following.
(§2) 4× Test compounds are dissolved in 1% DMSO. […] ATP solutions are diluted to a 4×ATP working concentration in Kinase Buffer (50 mM HEPES pH 7.5, 0.01% BRIJ-35, 10 mM MgCl2, 1 mM EGTA).
(§3) Reaction starts by 30-second shaking of mixture consisting of 2.5 μL4× test compound, […] and 2.5 μL 4×ATP Solution on Bar-coded Corning, low volume NBS, black 384-well plate (Corning Cat. #3676). Then the mixture is incubated for 60-minute at room temperature for the kinase reaction, followed by addition of 5 μL of a 1:1024 dilution of development reagent A and 30-second plate shake. The mixture is then incubated for another 60-minute at room temperature for development reaction. Finally fluorescence is read by plate reader.

[2] = target: T2, BRAF V600E (Homo sapiens, UniProt P15056, V600E); test: Z′-LYTE kinase assay, BRAF V600E (Invitrogen); type: biochemical; details: Z′-LYTE method
T2 construct: purchased Invitrogen
T2 sequence (P15056 whole entry V600E): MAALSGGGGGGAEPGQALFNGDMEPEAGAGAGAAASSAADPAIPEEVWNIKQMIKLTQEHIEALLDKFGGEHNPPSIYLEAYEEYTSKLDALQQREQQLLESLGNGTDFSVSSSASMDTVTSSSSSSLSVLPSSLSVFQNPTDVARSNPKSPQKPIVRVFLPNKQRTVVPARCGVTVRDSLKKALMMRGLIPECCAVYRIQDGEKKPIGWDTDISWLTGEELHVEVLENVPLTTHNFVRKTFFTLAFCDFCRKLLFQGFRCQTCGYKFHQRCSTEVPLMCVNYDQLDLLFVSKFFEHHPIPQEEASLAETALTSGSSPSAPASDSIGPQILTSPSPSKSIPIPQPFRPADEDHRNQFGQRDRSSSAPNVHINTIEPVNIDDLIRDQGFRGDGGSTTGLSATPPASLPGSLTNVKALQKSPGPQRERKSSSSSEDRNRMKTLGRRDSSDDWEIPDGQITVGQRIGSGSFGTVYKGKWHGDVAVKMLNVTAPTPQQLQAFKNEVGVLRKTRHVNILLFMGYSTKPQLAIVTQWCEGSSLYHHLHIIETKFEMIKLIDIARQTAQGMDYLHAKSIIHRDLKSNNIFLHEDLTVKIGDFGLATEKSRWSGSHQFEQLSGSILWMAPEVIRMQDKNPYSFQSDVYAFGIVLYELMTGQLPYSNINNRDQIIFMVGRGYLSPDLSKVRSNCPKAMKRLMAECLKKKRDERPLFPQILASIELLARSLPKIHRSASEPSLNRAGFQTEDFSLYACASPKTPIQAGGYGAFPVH
Procedure: as §1, §2, §3

[3] = target: T1, BRAF; test: LanthaScreen kinase assay, BRAF; type: biochemical; details: ATP 1 μM
Procedure: (§4) The inhibitory activities of compounds against BRAF or BRAF V600E protein were measured using Invitrogne's LanthaScreen™ kinase assay which is based on fluorescein-labeled MAP2K1 as a substrate. The assay procedure is described as follows.
(§5) The scale utilized in Table 3 is as follows: ++++ less than 50 nM; +++ between 50 and 100 nM; ++ between 100 nM and 1 μM; and + greater than 1 μM.

[4] = target: T2, BRAF V600E; test: LanthaScreen kinase assay, BRAF V600E; type: biochemical; details: ATP 10 μM
Procedure: as §4, §5

[5] = tested on: A375 (human melanoma cell, BRAF V600E Mutant); test: Inhibition of cancer cell growth, MTT or MTS assay, A375; type: cell-based; details: A-375, 72 h, highest concentration 10 μM (Table 5)
Procedure: (§6) A375 (human melanoma cell, BRAF V600E Mutant), CHL-1 (human melanoma cell, BRAF wild type), SK-MEL-28 (human melanoma cell, BRAF V600E Mutant) and SK-MEL-31(human melanoma cell, Braf WT Mutant) were purchased from ATCC (American Type Culture Collection, Manassas, Va.). All cell lines were maintained in RPMI 1640 (Hyclone) or DMEM (Hyclone) supplemented with 10% fetal bovine serum (FBS, Hyclone), glutamine (2 mM, Hyclone), and antibiotics (penicillin 100 U/mL and streptomycin 50 μg/mL) at 37° C. in a humidified atmosphere of 5% CO2 in air.
(§7) To test IC50 of inhibition of individual compounds against each cell line, A375, SK-MEL-28and SK-MEL-31 cells were first plated in 96-well plates at densities of 3000 cells/well, and CHL-1 2500 cells/well. Cells were then incubated to allow cells to adhere and grow for 24 h. Cells were then treated with a series of concentrations of compounds for 72 h. The highest concentration of compounds was 10 μM for A375 and SK-MEL-28 cells and 100 μM for CHL-1 and SK-MEL-31 cells. Cells were then removed from the incubator and medium was removed by inverting and tapping the plates. 100 μL of MTT (0.5 mg/ml) or 10 μL or MTS was added to each well followed by an incubated at 37° C. for 4 h. Then MTT was removed and 200 μL of DMSO was added to each well, followed by reading the ODs at 570 nm after a 5 second shaking cycle in a 96-well spectrophotometer. For MTS method, MTS was not removed, and the incubated solutions were directly put in a 96-well spectrophotometer for the reading of the ODs at 492 nm.
(§8) IC50 was calculated by plotting the concentration of compound vs the percentage of inhibition in treated wells using GraphPad Prism 5. […] The scale utilized in Table 5 is as follows: +++ less than 500 nM; ++ between 500 nM and 1 μM; and + greater than 1 μM.

[6] = tested on: SK-MEL-28 (human melanoma cell, BRAF V600E Mutant); test: Inhibition of cancer cell growth, MTT or MTS assay, SK-MEL-28; type: cell-based; details: 72 h, highest concentration 10 μM
Procedure: as §6, §7, §8

[7] = tested on: CHL-1 (human melanoma cell, BRAF wild type); test: Inhibition of cancer cell growth, MTT or MTS assay, CHL-1; type: cell-based; details: 72 h, highest concentration 100 μM
Procedure: as §6, §7, §8

[8] = tested on: SK-MEL-31 (human melanoma cell, Braf WT Mutant); test: Inhibition of cancer cell growth, MTT or MTS assay, SK-MEL-31; type: cell-based; details: 72 h, highest concentration 100 μM
Procedure: as §6, §7, §8

[9] = tested on: A375 tumor xenograft; test: Inhibition of tumor growth in A375 tumor xenograft model; type: in vivo, BALB/c female nude mice; details: nude mice, Compound 12.5 mg/kg b.i.d. × 20 i.g., Cisplatin 6 mg/kg q7d × 3 i.p.
Procedure: Cells were implanted in BALB/c female nude mice and grown as tumor xenografts. When tumors achieved 120-200 mm^3, mice were assigned into treatment and control groups using randomized block design based upon their tumor volumes. Each group contained 6 tumor-bearing mice. Tumors were measured twice weekly in two dimensions using a caliper, and the tumor volume was calculated from two-dimensional measurements using the equation V=0.5×a×b^2 where a and b are the long and short diameters of the tumor, respectively. Relative tumor volume (RTV) was defined as TVt/TVi, the ratio of the volume on a given day (TVt) and the volume at the start of treatment (TVi). Relative tumor growth rate (T/C) was defined as RTVT/RTVC, the ratio of relative tumor volume of treatment group (RTVT) and relative tumor volume of control group (RTVC) on a given day. Inhibition of tumor growth in a A375 tumor xenograft model is shown below in Table 6 for a compound of Table 1.

T1 sequence (P15056 whole entry): as the sequence (P15056 whole entry V600E) above, with E600V counted along it

inhibition at 1 µM [1] | inhibition at 1 µM [2] | pIC50 [3] | pIC50 [4] | pIC50 [5] | pIC50 [6] | IC50 CHL-1 [7] | IC50 SK-MEL-31 [8] | SMILES | Tumor Volume Post-treatment [9] | Tumor Volume Pre-treatment [9] | T/C (relative tumor growth rate, RTVT/RTVC) ([9]; *p < 0.05, **p < 0.01)
> 89% | > 89% | 7.00 to 7.30 | > 7.30 | > 6.30 | > 6.30 | No inhibition | No inhibition | CCCS(=O)(=O)Nc1cc(F)c(F)c(C(=O)c2ccc3nccnc3c2)c1F [Compound C04, N-(2,4,5-trifluoro-3-(quinoxaline-6-carbonyl)phenyl)propane-1-sulfonamide] | – | – | –
– | – | – | – | – | – | – | – | N.N.[Cl][Pt][Cl] [Cisplatin] | 647 mm^3 | 136 mm^3 | 44.4%*
> 89% | > 89% | 7.00 to 7.30 | > 7.30 | > 6.30 | > 6.30 | No inhibition | No inhibition | CCCS(=O)(=O)Nc1cc(F)c(F)c(C(=O)c2ccc3ncc(N4CCOCC4)nc3c2)c1F [Compound C09, N-(2,4,5-trifluoro-3-(3-morpholinoquinoxaline-6-carbonyl)phenyl)propane-1-sulfonamide] | – | – | –
